Measured values reported in patent US6855549B1, “Methods and compositions for increasing the infectivity of gene transfer vectors” (The University of Iowa Research Foundation, priority 1998, dated 2005).

Key:
[1] = tested on: differentiated human airway epithelial cells; type: cell-based; settings: 5 μM AZT at addition of FIV-βgal vector/EGTA to apical surface
[2] = tested on: differentiated human airway epithelia; test: Transepithelial resistance of KGF-treated airway epithelia with Ca2+ chelators; type: cell-based
Description: Differentiated epithelial cells were treated with 100 ng/ml KGF for 24 hr. Different concentrations of each calcium chelator in HEPES/HCl (pH 7.4) or in isotonic HEPES/saline (pH 7.4) buffer were mixed with vector buffer and applied to the apical surface for times as specified (Wang et al., 1998). Transepithelial resistance was measured with an Ohmmeter (EVOM; World Precision Instruments, Inc. Sarasota, Fla.) by adding cell culture media to the apical surface and the values were compared to untreated controls.
To understand whether the tonicity of the vector solution affects epithelial permeability and gene transfer efficiency, hypotonic (40 mmol/kg) or isotonic (220 mmol/kg) solutions of 6 mM EGTA, EDTA or BAPTA were added to the MuLV vector buffer and applied to the apical surface of differentiated airway epithelial cells pre-treated with KGF. At specific time intervals, transepithelial resistance (R1) was measured using an Ohmmeter.

human nasal epithelium = test: Nasal transepithelial voltage (Vt) in human volunteers; type: in vivo; settings: human, in vivo
Description: Human studies. The Vt across the nasal epithelium was measured in 6 volunteers using previously described methods (Zabner et al., 1996). The protocol followed was identical to that described above for the rabbit studies. […] The catheter was then left in that position for the entire recording period. The solutions were administered through the second lumen in the following order: 1) Normal saline for 5 min; 2) Sterile water with 10 mM EGTA or 10 mM EDTA for 10 min; 3) Nommal saline with 10 mM EGTA or 10 mM EDTA for 5 min; and 4) Normal saline with 10 mM, EGTA or 10 mM EDTA plus […] amiloride for 5 min. Measurements of Vt were read by two investigators who were blinded and wvere checked by a third investigator if there was a discrepancy of more than 2 mV. Disruption of epithelial junctions was assessed by detecting a fall in nasal Vt after perfusion with the chelator, and by the loss of amiloride-sensitive Vt after perfusion with the. chelator solution.

[3] = tested on: rabbit tracheal epithelium; test: Tracheal transepithelial voltage (Vt) in anesthetized rabbits; type: in vivo; settings: rabbit, in vivo
Description: Rabbit studies. The transepithelial electrical potential difference across the rabbit tracheal epithelium (Vt) was measured using a modification of previously described methods (Zabner et al., 1996). The reference electrode was a subcutaneous needle connected with sterile normal saline solution to a silver/silver chloride pellet. Adult New Zealand white rabbits (n=4/group) were anesthetized with 32 mg/kg ketamine, 5.1 mg/kg xylazine and 0.8 mg/kg acepromazine intramuscularly and placed with the head in the dependent position. An exploring electrode (pediatric size 8 Teflon-coated latex double lumen Foley catheter, modified Ruseh, Inc., Duluth, Ga.) was inserted into the tracheal lumen via a tracheotomy incision. One lumen of the catheter was filled with sterile normal saline solution and was connected to a silver/silver chloride pellet. Voltage was measured with a voltmeter connected to a strip chart recorder. The catheter was then left in that position for the entire recording period. The solutions were administered through the second lumen in the following order: 1) Normal saline for 5 min; 2) Sterile water with 10 mM EGTA for 10 min; 3) Normal saline with 10 mM EGTA for 5 min; and 4) Normal saline with 10 mM EGTA plus 100 μM amiloride for 5 min. Measurements of Vt were read by two investigators who were blinded to the treatment received. There wre no discrepancies in readings of greater than 2 mV between the investigators. Disruption of epithelial junctions was assessed by detecting a fall in […] Vt after perfusion with the chelator, and by the loss of amiloride-sensitive Vt after perfusion with the chelator solution.

[4] = tested on: differentiated human airway epithelia; type: cell-based
human airway epithelia [5] = test: BrdU labeling of differentiated human airway epithelia; type: cell-based; settings: for BrdU incorporation versus control epithelia: EGF 200 ng/ml, heregulin 5 nM
Description: BrdU immunohistochemistry. BrdU labeling and immunostaining was performed using a kit from Zymed Laboratories Inc. (South San Francisco, Calif.). In studies that investigate the effects of growth factors, the cells may be treated with 50-100 ng/ml growth factor for 36 h. A 1:100 dilution of the BrdU labeling reagent was added to the culture media and cells labeled for 4 hours followed by fixation in 10% neutralized Formalin. BrdU histochemistry was performed following the methods of the Zymed BrdU kit. Labeled nuclei stained brown under these conditions. Epithelial cell preparations were examined microscopically en face or in cross sections of paraffin embedded membranes and the percentage of brown staining nuclei determined. Hematoxylin or 4′,6-diamidino-2-phenylindole, dibydrochloride (DAPI) (Molecular Probes, Eugene, Oreg.) were used for counterstains.
To determine whether growth factors are mitogenic to human airway epithelia, primary cultures of cells grown at the air-liquid interface were utilized. These cultures have ion transport properties and morphology similar to the intact surface epithelium (Smith et al., 1996; Kondo et al., 1991) and after 14 days in culture the cells are well-differentiated, ciliated, and have ion transport properties similar to the intact airways (Zabner et al., 1996; Yamaya et al., 1992). […] After 24 hours of growth factor treatment, growth factor administration doubles the monolayer cell number compared to control. HGF treatment (200 ng/ml) increased cell labeling to 17-36%, while 5-10% of untreated controls were BrdU positive (n=3).

human airway epithelia [6] = test: [3H] thymidine incorporation in primary cultures of human airway epithelia; type: cell-based; settings: 200 ng/ml HGF

Cc1cn([C@H]2C[C@H](N=[N+]=[N-])[C@@H](CO)O2)c(=O)[nH]c1=O [AZT, 3′-azido-3′ deoxythymidine]
expression of vector encoded product (pseudotransduction control) [1]: showed no significant expression of vector encoded product

O=C(O)CN(CC(=O)O)c1ccccc1OCCOc1ccccc1N(CC(=O)O)CC(=O)O [BAPTA]
fall of R1, isotonic solution ([2]; 6 mM, isotonic): quickly dropped R1, similar to the hypotonic solutions

O=C(O)CN(CCN(CC(=O)O)CC(=O)O)CC(=O)O [EDTA]
time required to decrease R1 to ~20% of the controls ([2]; 6 mM chelator, isotonic (220 mmol/kg)): Sixty

N=C(N)NC(=O)c1nc(Cl)c(N)nc1N [amiloride]
nasal Vt response to amiloride in control studies (human nasal epithelium): there was a significant fall in Vt with amiloride treatment | Vt response to amiloride in control tracheas perfused with saline [3]: the anticipated fall in Vt in response to perfusion with amiloride

O [water]
effect on proliferation ([4]; application of H2O or EGTA to epithelia, control studies): had no effect on proliferation | epithelia expressing β-gal ([4]; pretreated with water alone, vector to mucosal surface, mean±SE, n=13): 3±0.5%

EGF: epidermal growth factor
BrdU incorporation versus control epithelia (human airway epithelia [5]): increased BrdU incorporation over control epithelia

HGF: Hepatocyte growth factor, mitogen for pulmonary epithelia
BrdU cell labeling (human airway epithelia [5]; HGF 200 ng/ml, untreated controls 5-10% BrdU positive, n=3): 17-36% | stimulation of cell division measured by [3H] thymidine incorporation (human airway epithelia [6]): 3 fold

heregulin
BrdU incorporation versus control epithelia (human airway epithelia [5]): increased BrdU incorporation over control epithelia
